This is an account of results in article PMC3951181, “Rosamines Targeting the Cancer Oxidative Phosphorylation Pathway” (PLoS ONE, 2014).

One data set deals with MCF-7 breast carcinoma. Briefly: MTT cell viability assay, 48 h. It counts as cell-based. The conditions noted are these: Homo sapiens, MCF7, 48 h post-treatment, mean ± SD. How it is done:
(§1) MCF-7 breast carcinoma and HCT-116 colon carcinoma cell lines were obtained from American Tissue Culture Collection (Virginia, USA) and maintained in RPMI 1640 medium supplemented with 10% FBS. HSC-2 oral cavity human squamous carcinoma cells were obtained from Health Science Research Resources Bank (Japan). HK-1, a previously characterized nasopharyngeal squamous carcinoma cells is a gift by Prof. Wong Y.C. from the University of Hong Kong. Both cell lines were grown in MEM medium supplemented with 10% FBS. For cell viability assay, cells at 4000 cells/well in 80 µl of medium were inoculated in 96-well plates and were allowed to adhere overnight. Cells were then treated with each compound at concentrations ranging from 0.001–10 µM giving the final volume of 100 µl in each well. At the end of incubation period, 15 µl of 5.0 mg/ml MTT in phosphate buffered saline (PBS) was added and incubated for 4 h. Medium and excessive MTT were aspirated and the resulting formazan was solubilized with 100 µl of dimethyl sulfoxide. Absorbance was read at 570 nm with SpectraMax M4 microplate spectrophotometer (Molecular Devices, CA).
(§2) The in vitro antitumor activity of rosamines was assessed using a 48 h endpoint cell viability methylthiazolyldiphenyl-tetrazolium bromide (MTT) assay against a panel of solid human tumor cell lines including breast carcinoma (MCF-7), colon carcinoma (HCT-116), oral squamous cell carcinoma (HSC-2) and nasopharyngeal carcinoma (HK-1). […] Within the halide series, cytotoxicities increase in the following order 4>3>[…] (Cl>Br>I), although not statistically significant (P>0.05).
Background: Tetrazolium dyes change colour on reduction, which living cells bring about.

Another data set deals with HCT-116 colon carcinoma. Briefly: MTT cell viability assay, 48 h. It counts as cell-based. The conditions noted are these: Homo sapiens, 48 h post-treatment, mean ± SD. How it is done: as §1, §2
Data set [1] concerns HSC-2 oral cavity human squamous carcinoma cells. The data set can be described thus: MTT cell viability assay, 48 h. It counts as cell-based. The conditions noted are these: 48 h post-treatment, mean ± SD. How it is done: as §1, §2
In data set [2] the test system is HK-1 nasopharyngeal squamous carcinoma cells. Briefly: MTT cell viability assay, 48 h. The note with it: Homo sapiens, 48 h post-treatment, mean ± SD. It counts as cell-based. How it is done: as §1, §2
Data set [3] in a line: Solubility in aqueous media for treatment stock. It counts as physicochemical. The note with it: reconstitution of treatment stock at 10 mM. How it is done:
Compounds 3, 4 and 6 were synthesized to test if meso-replacement with 4-bromobenzene 3, 4-chlorobenzene 4 or 2-furyl 6 groups would affect the anticancer activity. In addition, the 4-iodobenzene 7 or 2-thiofuran meso substituents 8 and unsymmetrical piperidine/[…] amine substituents were synthesized and investigated. Rosamines 1–4 and 7 were not appreciably water-soluble so they were reconstituted in DMSO at 10 mM as treatment stock.

Data set [4] deals with panel of solid human tumor cell lines (MCF-7, HCT-116, HSC-2, HK-1). Briefly: MTT cell viability assay, panel of cancer cell lines. The conditions noted are these: mean over MCF-7, HCT-116, HSC-2, HK-1. It counts as cell-based. How it is done:
as §1, §2

The test system of data set [5] is NCI-60 human tumor cell lines. The data set can be described thus: NCI-60 screen, sulforhodamine B, whole panel. It counts as cell-based. The note with it: overall value for the NCI-60 cell lines screen. How it is done: NCI-60 cell panel screening was performed by the NCI/National Institutes of Health developmental therapeutics program (Bethesda, US). This platform allows the determination of growth inhibitory profiles of test compounds on 60 different human cancer cell lines, representing leukemia, melanoma and cancers of the lung, colon, central nervous system, ovary, breast, prostate, and renal subpanel. Sulforhodamine B assay was used to assess the cytotoxicity of test agents in a panel of 60 cell lines. Briefly, the human tumor cell lines of the cancer screening panel were grown in RPMI 1640 medium containing 5% FBS and 2 mM L-glutamine. For a typical screening experiment, cells were inoculated into 96 well microtiter plates in 100 µl at plating densities depending on the doubling time of individual cell lines. After cell inoculation, the microtiter plates are incubated at 37°C, 5% CO2 and 100% relative humidity for 24 h. Following incubation, aliquots of 100 µl of compound at different dilutions were added to the appropriate microtiter wells and were further incubated for 48 h. At the assay end-point, cells were fixed with trichloroacetic acid followed by Sulforhodamine B staining for cellular protein content. Sulforhodamine B absorbance was read at a wavelength of 515 nm as a measurement of cell density.

Another data set has as its target Complex IV (Mus musculus, UniProt P00397+P00405+P00416). The data set can be described thus: Immunocapture ELISA microplate enzyme activity assay. The conditions noted are these: read-out: IC50 Complex IV activity; mouse liver mitochondria extract; 0.01–10 µM.
The target of the next data set is Complex II (Mus musculus, UniProt Q8K2B3+Q9CQA3+Q9CXV1+Q9CZB0). The description is as above. It counts as biochemical. The note with it: mouse liver mitochondria extract; 0.01–10 µM.
Complex II, sequence (Q8K2B3 43-664): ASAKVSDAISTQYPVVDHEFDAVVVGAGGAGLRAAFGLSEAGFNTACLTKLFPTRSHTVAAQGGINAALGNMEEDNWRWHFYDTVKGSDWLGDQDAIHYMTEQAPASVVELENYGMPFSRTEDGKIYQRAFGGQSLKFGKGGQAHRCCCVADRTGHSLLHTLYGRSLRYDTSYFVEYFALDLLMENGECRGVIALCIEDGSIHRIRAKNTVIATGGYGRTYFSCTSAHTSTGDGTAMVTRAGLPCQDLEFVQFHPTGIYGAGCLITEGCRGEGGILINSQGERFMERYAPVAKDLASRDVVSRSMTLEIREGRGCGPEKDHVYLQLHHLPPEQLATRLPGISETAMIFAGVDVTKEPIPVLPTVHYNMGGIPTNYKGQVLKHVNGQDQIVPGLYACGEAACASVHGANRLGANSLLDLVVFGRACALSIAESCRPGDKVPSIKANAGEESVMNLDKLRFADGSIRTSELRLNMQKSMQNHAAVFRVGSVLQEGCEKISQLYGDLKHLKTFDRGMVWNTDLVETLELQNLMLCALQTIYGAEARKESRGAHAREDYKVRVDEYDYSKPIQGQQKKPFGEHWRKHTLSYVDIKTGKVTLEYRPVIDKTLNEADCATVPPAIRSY
Complex II, sequence (Q9CQA3 31-282): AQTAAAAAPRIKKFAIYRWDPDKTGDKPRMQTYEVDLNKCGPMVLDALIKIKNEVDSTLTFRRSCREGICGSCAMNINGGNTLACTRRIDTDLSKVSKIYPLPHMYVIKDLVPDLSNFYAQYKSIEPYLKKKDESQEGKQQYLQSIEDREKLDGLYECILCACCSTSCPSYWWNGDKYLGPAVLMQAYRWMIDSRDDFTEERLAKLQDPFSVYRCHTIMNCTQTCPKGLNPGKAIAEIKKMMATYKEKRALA
Complex II, sequence (Q9CZB0 30-169): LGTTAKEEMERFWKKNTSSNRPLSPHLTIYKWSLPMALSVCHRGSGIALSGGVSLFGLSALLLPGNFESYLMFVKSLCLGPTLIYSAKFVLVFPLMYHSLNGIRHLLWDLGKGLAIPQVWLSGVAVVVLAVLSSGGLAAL
Complex II, sequence (Q9CXV1 57-159): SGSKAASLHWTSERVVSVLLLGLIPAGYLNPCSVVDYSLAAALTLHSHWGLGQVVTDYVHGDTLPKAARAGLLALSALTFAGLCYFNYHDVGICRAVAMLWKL
The next data set addresses Complex I. The description is as above. It counts as biochemical. The note with it: mouse liver mitochondria extract; 0.01–10 µM.
A further data set deals with HSC-2 cells. Briefly: JC-1 analysis of mitochondrial membrane potential. It counts as cell-based, human. The note with it: for cell population with mitochondrial transmembrane potential loss: 0.1 µM, untreated control about 8% at 8 h. How it is done: The mitochondrial membrane potential was measured based on the potential–dependent accumulation of the cationic JC-1 dye which results in a shift of fluorescence emission from green (∼525 nm) to red (∼590 nm) due to the formation of J-aggregates. Therefore, mitochondrial depolarization is indicated by a decrease in the red/green fluorescence intensity ratio. Briefly, cells were collected and suspended in 1 ml warm media at approximately 1×10^6 cell/ml. In a control tube, 1 µl of 50 mM CCCP was added and incubated at 37°C for 5 min. Then, 10 µl of 200 µM JC-1 was added into the cells and incubated at 37°C for 30 min. Cells were washed twice with warm PBS, resuspended in 500 µl of PBS and analyzed on a FACSCalibur flow cytometer using 488 nm excitation with 530/30 nm and 585/42 nm bandpass emission filters.
Meanwhile, the mitochondrial transmembrane potential loss was more prominent in HSC-2 cells treated with 5 at 0.1 µM. Approximately 21% (P<0.05) of the cell population was affected in the first hour and the percentage increased drastically to 34% in 8 h. For the untreated control cells, the population of depolarized cells at 8 h remained at approximately 8%. […] CCCP is an oxidative phosphorylation decoupling agent which acts as a positive control for the experiment.

The next data set deals with ATP synthase (Mus musculus, UniProt P56480+Q03265). The data set can be described thus: Immunocapture ELISA microplate enzyme activity assay. The note with it: read-out: IC50 ATP synthase activity; mouse liver mitochondria extract; 0.01–10 µM.
The test system of data set [6] is panel of solid human tumor cell lines (MCF-7, HCT-116, HSC-2, HK-1). Further details: method as in PMID 19387338. The note with it: anticancer activity in cellular assays; previous study; cited from earlier work.

Some results are limits rather than exact numbers.

Description for ATP synthase: (§3) Functional mitochondria were isolated from mouse liver by differential centrifugation method [14]. Briefly, a mouse (∼30 g) was starved overnight before sacrificed by cervical dislocation. The liver was harvested promptly and rinsed with ice-cold mitochondria isolation buffer (10 mM Tris-MOPS, 1 mM EGTA/Tris, 0.2 M sucrose, pH 7.4) until blood-free. The liver was then cut into small pieces in a beaker using scissors while keeping in an ice-bath. The buffer was replaced with 5 ml of fresh isolation buffer and the liver was homogenized with a Polytron probe (Ultra-Turrax T8, Ika-Werke, Germany) until smooth. The homogenate was centrifuged at 1000 g for 15 min at 4°C. The pellet was discarded and the supernatant was centrifuged at 12000 g for 15 min at 4°C to pellet the mitochondria. The mitochondria were washed twice by resuspending in 4 volumes of isolation buffer containing 1× protease cocktail inhibitor. The concentration of the mitochondrial protein was determined using the Bradford (Biorad protein assay) method. […]
(§4) In general, plate pre-coated with appropriate immunocapture antibody was incubated with mitochondria extract at recommended concentration to allow immobilization of their respective complexes. Complexes activity was measured by addition of substrates solution mix provided by the kit and compound was added at concentration ranging from 0.01–10 µM in triplicate. […]
Description for Complex IV: as §3, §4

As a reminder, the IC50 is the point on the concentration scale where inhibition reaches its midpoint. As to `c1csc(-c2c3ccc(=[N+]4CCOCC4)cc-3oc3cc(N4CCCCC4)ccc23)c1` [Rosamine 8, Unsymmetrical Thiofuryl Rosamine], the 50% inhibitory concentration (IC50) was 0.17 ± 0.1 µM with MCF-7 breast carcinoma; 0.07 ± 0.02 µM in the data set with HCT-116 colon carcinoma; 0.22 ± 0.11 µM in data set [1]; 0.53 µM in data set [2]; 0.25 µM in data set [4]. In data set [3], the water solubility result is reported as “readily solubilized in aqueous media”.
As a reminder, the GI50 is the concentration at which growth is held to half of that of the control. The low end stands for more potent growth inhibition, the high end for less potent growth inhibition. Regarding `Clc1ccc(-c2c3ccc(=[N+]4CCCCC4)cc-3oc3cc(N4CCCCC4)ccc23)cc1` [Rosamine 4, 4-Chlorobenzene Rosamine], the IC50 was 0.15 ± 0.04 µM with MCF-7 breast carcinoma; 0.22 ± 0.14 µM with HCT-116 colon carcinoma; 0.09 ± 0.01 µM in data set [1]; 0.25 ± 0.01 µM in data set [2]; 0.18 µM in data set [4]. For the same compound, the GI50 in data set [5] (Homo sapiens) was 0.1 µM. The Log10GI50 in [5] is on record as −7.
Take `Ic1ccc(-c2c3ccc(=[N+]4CCCCC4)cc-3oc3cc(N4CCCCC4)ccc23)cc1` [Rosamine 2]: the IC50 in the data set on MCF-7 breast carcinoma is 0.59 ± 0.12 µM; with HCT-116 colon carcinoma, 0.39 ± 0.07 µM; in data set [1], 0.35 ± 0.05 µM; in data set [2], 0.29 ± 0.03 µM; at Complex IV, > 10 µM; against Complex I, > 10 µM. The IC50 on ATP synthase was determined as 3.9 ± 0.3 µM; in data set [4], 0.41 µM. Moreover, the “IC50 Complex II activity” value against Complex II is reported as “did not reach 50% up to maximum concentrations studied”. Besides, the figures for the “cell population with mitochondrial transmembrane potential loss” value with HSC-2 cells (8 h) and with HSC-2 cells (within 1 h after treatment) were 19% and 9%, respectively. Also, the “fold more active than phenyl substituted compound 1” value in data set [6] is listed as 5 fold.
Take `Brc1ccc(-c2c3ccc(=[N+]4CCCCC4)cc-3oc3cc(N4CCCCC4)ccc23)cc1` [Rosamine 3, 4-Bromobenzene Rosamine]: the IC50 was 0.29 ± 0.04 µM with MCF-7 breast carcinoma; 0.3 ± 0.08 µM in the data set on HCT-116 colon carcinoma; 0.19 ± 0.11 µM in [1]; 0.34 µM in data set [2]; 0.28 µM in data set [4].
With `c1coc(-c2c3ccc(=[N+]4CCCCC4)cc-3oc3cc(N4CCCCC4)ccc23)c1` [Rosamine 6, Furan Rosamine], the IC50 with MCF-7 breast carcinoma was 0.31 ± 0.14 µM; in the data set on HCT-116 colon carcinoma, 0.1 ± 0.03 µM; in [1], 0.09 µM; in [2], 0.31 ± 0.08 µM; in data set [4] it was 0.2 µM. Also, the water solubility entry in data set [3] is “readily solubilized in aqueous media”.
On to `c1ccc(-c2c3ccc(=[N+]4CCCCC4)cc-3oc3cc(N4CCCCC4)ccc23)cc1` [Rosamine 1], for which the half-maximal inhibitory concentration (IC50) with MCF-7 breast carcinoma amounted to 1.2 ± 0.7 µM; in the data set on HCT-116 colon carcinoma it was 0.6 ± 0.41 µM; in data set [1], 0.09 µM; in data set [2], 0.61 ± 0.07 µM; in [4], 0.63 µM.
Consider `N#CC(C#N)=NNc1cccc(Cl)c1` [CCCP, Carbonyl cyanide 3-chlorophenylhydrazone, reference compound], for which the “cell population with loss of membrane potential” value in the data set on HSC-2 cells (5 µM for 5 min, positive control) came out at 70%.
For the compound `Ic1ccc(-c2c3ccc(=[N+]4CCOCC4)cc-3oc3cc(N4CCCCC4)ccc23)cc1` [Rosamine 7, Unsymmetrical 4-Iodophenyl Rosamine], the concentration for half-maximal inhibition (IC50) was 0.26 ± 0.07 µM in the data set on MCF-7 breast carcinoma; 0.24 ± 0.07 µM in the data set with HCT-116 colon carcinoma; 0.22 ± 0.1 µM in data set [1]; 0.44 ± 0.01 µM in [2]; 0.29 µM in data set [4].
